In patent US11839214B2, “Fungicidal mixture comprising substituted pyridines” (BASF SE, priority 2017, dated 2023):
Read-outs that look alike come from different tables or passages of the source.

Tests used:
Type in all cases: cell-based
Pyricularia oryzae = test: microbe, parasite or virus in culture; conditions: for Observed efficacy: single active compound
Septoria tritici = test: Activity against leaf blotch on wheat caused by Septoria tritici (microtiterplate test)
Botrytis cinerea = test: Activity against the grey mold Botrytis cinerea in the microtiterplate test; conditions: for inhibition of growth at 1 ppm / inhibition of growth at 4 ppm: Botrytis cinerea, 168 h, read-out: Observed efficacy
[1] = single active compound, 0.25 ppm
[2] = Pyricularia oryzae, 168 h, read-out: Observed efficacy
[3] = Zymoseptoria tritici, 168 h, read-out: Observed efficacy

Cc1ccc(C(=O)OCc2ccc(Oc3ccccc3)cc2)c(N)n1 [Aminopyrifen, aminopyrifen]
Observed efficacy (Pyricularia oryzae; 0.001 ppm): 0%
Observed efficacy (Pyricularia oryzae; 0.004 ppm): 6%
Observed efficacy (Pyricularia oryzae; 0.016 ppm): 36%

CNC(=O)/C(=N/OC)c1ccccc1COc1cc(C)ccc1C [Dimoxystrobin, dimoxystrobin]
Observed efficacy (Septoria tritici; single active, 0.016 ppm): 2%
Observed efficacy (Septoria tritici; single active, 0.063 ppm): 27%
Observed efficacy (Botrytis cinerea; single active compound, 0.063 ppm): 0%
Observed efficacy (Botrytis cinerea; [1]): 12%

O=C(NCCc1ncc(C(F)(F)F)cc1Cl)c1ccccc1C(F)(F)F [Fluopyram, fluopyram]
inhibition of growth at 0.25 ppm (Septoria tritici; Zymoseptoria tritici, 168 h, single active, 0.25 ppm, read-out: Observed efficacy): 23%
inhibition of growth at 0.25 ppm (Pyricularia oryzae; [2]): 7%

C=CCOC(Cn1ccnc1)c1ccc(Cl)cc1Cl (stereo not shown) [Imazalil, imazalil]
inhibition of growth at 1 ppm (Pyricularia oryzae; [2]): 20%
inhibition of growth at 1 ppm (Botrytis cinerea; single active compound, 1 ppm): 54%

CNC(=O)C(OC)c1ccccc1COc1cc(C)ccc1C (stereo not shown) [Mandestrobin, mandestrobin]
Observed efficacy (Septoria tritici; single active, 1 ppm): 11%
Observed efficacy (Pyricularia oryzae; 1 ppm): 9%

CC(O)(Cn1cncn1)c1ccc(Oc2ccc(Cl)cc2)cc1C(F)(F)F (stereo not shown) [Mefentrifluconazol, mefentrifluconazole]
Observed efficacy (Pyricularia oryzae; 0.016 ppm): 7%
Observed efficacy (Botrytis cinerea; single active compound, 0.016 ppm): 10%

CC#Cc1cc(C)nc(Nc2ccccc2)n1 [Mepanipyrim, mepanipyrim]
inhibition of growth at 0.25 ppm (Pyricularia oryzae; [2]): 3%
inhibition of growth at 1 ppm (Pyricularia oryzae; [2]): 45%
inhibition of growth at 4 ppm (Pyricularia oryzae; [2]): 64%
inhibition of growth at 1 ppm (Botrytis cinerea; single active compound, 1 ppm): 63%
inhibition of growth at 4 ppm (Botrytis cinerea; single active compound): 72%

COCC(=O)N(c1c(C)cccc1C)C(C)C(=O)OC (stereo not shown) [Metalaxyl, metalaxyl]
inhibition of growth at 1 ppm (Pyricularia oryzae; [2]): 4%
inhibition of growth at 4 ppm (Pyricularia oryzae; [2]): 11%
inhibition of growth at 4 ppm (Botrytis cinerea; single active compound): 19%

CC1(C)CCC(Cc2ccc(Cl)cc2)C1(O)Cn1cncn1 (stereo not shown) [Metconazol]
Observed efficacy (Septoria tritici; single active, 0.063 ppm): 30%

Cc1cccc(-n2nnn(C)c2=O)c1COc1ccn(-c2ccc(Cl)cc2)n1 [Methyltetraprol, metyltetrapole]
Observed efficacy (Septoria tritici; single active, 0.004 ppm): 5%
Observed efficacy (Septoria tritici; single active, 0.016 ppm): 22%
Observed efficacy (Pyricularia oryzae; 0.016 ppm): 24%

OC(Cc1ccccc1Cl)(Cn1nc[nH]c1=S)C1(Cl)CC1 (stereo not shown) [Prothioconazol, prothioconazole]
inhibition of growth at 0.063 ppm (Septoria tritici; Zymoseptoria tritici, 168 h, single active, 0.063 ppm, read-out: Observed efficacy): 1%
inhibition of growth at 0.25 ppm (Pyricularia oryzae; [2]): 12%

CON(C(=O)c1cn(C)nc1C(F)F)C(C)Cc1c(Cl)cc(Cl)cc1Cl (stereo not shown) [Pydiflumetofen, pydiflumetofen]
Observed efficacy (Pyricularia oryzae; 1 ppm): 44%

COC(=O)N(OC)c1ccccc1COc1ccn(-c2ccc(Cl)cc2)n1 [Pyraclostrobin, pyraclostrobin]
inhibition of growth at 0.004 ppm (Septoria tritici; Zymoseptoria tritici, 168 h, single active, 0.004 ppm, read-out: Observed efficacy): 7%
inhibition of growth at 0.016 ppm (Septoria tritici; Zymoseptoria tritici, 168 h, single active, 0.016 ppm, read-out: Observed efficacy): 52%
inhibition of growth at 0.001 ppm (Pyricularia oryzae; [2]): 4%
inhibition of growth at 0.004 ppm (Pyricularia oryzae; [2]): 14%

O=C1CCc2cccc3c2N1CC3 [Pyroquilon, pyroquilon]
inhibition of growth at 1 ppm (Pyricularia oryzae; [2]): 7%
inhibition of growth at 1 ppm (Botrytis cinerea): 2%

S1SSSSSSS1 [Sulfur, sulfur]
inhibition of growth at 1 ppm (Septoria tritici; [3]): 18%
inhibition of growth at 4 ppm (Pyricularia oryzae; [2]): 54%

Cc1cccc2sc3nncn3c12 [Tricyclazol, tricyclazole]
inhibition of growth at 4 ppm (Pyricularia oryzae; [2]): 6%
inhibition of growth at 4 ppm (Botrytis cinerea; single active compound): 2%

CC1(C)CCC(=Cc2ccc(Cl)cc2)C1(O)Cn1cncn1 (stereo not shown) [Triticonazol, triticonazole]
inhibition of growth at 1 ppm (Pyricularia oryzae; [2]): 10%

OCC1=C[C@H](N[C@H]2C[C@H](CO)[C@@H](O[C@@H]3O[C@H](CO)[C@@H](O)[C@H](O)[C@H]3O)[C@H](O)[C@H]2O)[C@H](O)[C@@H](O)[C@@H]1O [Validamycin, validamycin]
inhibition of growth at 63 ppm (Pyricularia oryzae; [2]): 10%

Cc1nc2c(F)c(F)ccc2cc1Oc1cccc(F)c1C(C)(C)O [drawing 29]
inhibition of growth at 4 ppm (Pyricularia oryzae; [2]): 50%

Cc1nc2c(F)c(F)ccc2cc1Oc1cccc(F)c1C(C)(C)O [drawing 43]
inhibition of growth at 1 ppm (Septoria tritici; [3]): 45%

Mancozeb
Observed efficacy (Septoria tritici; single active, 1 ppm): 16%

inpyrfluxam
Observed efficacy (Septoria tritici; single active, 0.25 ppm): 22%
Observed efficacy (Botrytis cinerea; [1]): 44%

metiram
Observed efficacy (Septoria tritici; single active, 1 ppm): 2%
Observed efficacy (Septoria tritici; single active, 4 ppm): 4%
Observed efficacy (Pyricularia oryzae; 4 ppm): 8%

prohexadione-calcium [Prohexadion-ca]
Observed efficacy (Septoria tritici; single active, 63 ppm): 12%
Observed efficacy (Pyricularia oryzae; 63 ppm): 8%
